Measured values reported in ChEMBL document CHEMBL5390218, “Benzimidazole derivatives as tubulin polymerization inhibitors: Design, synthesis and in vitro cytotoxicity studies” (Bioorg Med Chem Lett, 2023).
Activity calls are given as the source filed them. The rule behind the calls is not given here.

Columns and labels:
[1] = Selectivity index, ratio of IC50 for NRK-52E cells to ratio of IC50 for mouse B16-F10 cells; format: toxicity; conditions: NRK-52E cells versus B16-F10 cells, read-out: Selectivity Index
[2] = test system: HCT-116; experiment: Anticancer activity against human HCT-116 cells assessed as inhibition in cell growth measured after 72 hrs by MTT assay; format: functional, cell-based; conditions: HCT-116, 72 h
[3] = test system: B16-F10; experiment: Anticancer activity against mouse B16-F10 cells assessed as inhibition in cell growth measured after 72 hrs by MTT assay; format: functional, cell-based; conditions: B16-F10, 72 h
[4] = test system: A549; experiment: Anticancer activity against human A549 cells assessed as inhibition in cell growth measured after 72 hrs by MTT assay; format: functional, cell-based; conditions: A549, 72 h
[5] = test system: SK-MEL-28; experiment: Anticancer activity against human SK-MEL-28 cells assessed as inhibition in cell growth measured after 72 hrs by MTT assay; format: functional, cell-based; conditions: SK-MEL-28, 72 h
[6] = test system: MCF7; experiment: Anticancer activity against human MCF7 cells assessed as inhibition in cell growth measured after 72 hrs by MTT assay; format: functional, cell-based; conditions: MCF7, 72 h
[7] = Cytotoxicity against NRK-52E cells assessed as inhibition in cell growth measured after 72 hrs by MTT assay; format: toxicity, cell-based; conditions: rat
[8] = Selectivity index, ratio of IC50 for NRK-52E cells to ratio of IC50 for human HCT-116 cells; format: toxicity; conditions: rat (NRK-52E), NRK-52E cells versus HCT-116 cells, read-out: Selectivity Index
[9] = Selectivity index, ratio of IC50 for NRK-52E cells to ratio of IC50 for human A549 cells; format: toxicity; conditions: rat (NRK-52E), NRK-52E cells versus A549 cells, read-out: Selectivity Index
[10] = Selectivity index, ratio of IC50 for NRK-52E cells to ratio of IC50 for human SK-MEL-28 cells
[11] = Selectivity index, ratio of IC50 for NRK-52E cells to ratio of IC50 for human MCF7 cells; format: toxicity; conditions: rat (NRK-52E), NRK-52E cells versus MCF7 cells, read-out: Selectivity Index
[12] = test system: SK-MEL-28; experiment: Induction of ROS generation in human SK-MEL-28 cells by DCFDA staining based analysis; format: functional, cell-based; conditions: dose 1-5 µM
[13] = test system: SK-MEL-28; experiment: Inhibition of cell migration in human SK-MEL-28 cells at 1 to 5 uM incubated for 0 to 48 hrs by wound healing assay; format: functional, cell-based; conditions: dose 1-5 µM, time 0-48 hrs
[14] = test system: SK-MEL-28; experiment: Inhibition of cell migration in human SK-MEL-28 cells at 1 to 5 uM incubated for 0 to 48 hrs by phase-contrast microscopy; format: functional, cell-based; conditions: dose 1-5 µM, time 0-48 hrs
[15] = test system: SK-MEL-28; experiment: Inhibition of colony formation in human SK-MEL-28 cells incubated for 48 hrs by crystal violet staining based colony formation assay; format: functional, cell-based; conditions: dose 1-5 µM
[16] = test system: SK-MEL-28; experiment: Induction of morphological changes in human SK-MEL-28 cells assessed as cell shrinkage by ethidium bromide/acridine orange staining based analysis; format: functional; conditions: dose 1-5 µM
[17] = test system: SK-MEL-28; experiment: Induction of morphological changes in human SK-MEL-28 cells assessed as membrane blebbing by ethidium bromide/acridine orange staining based analysis; format: functional, cell-based; conditions: dose 1-5 µM
[18] = test system: SK-MEL-28; experiment: Induction of morphological changes in human SK-MEL-28 cells assessed as chromatin condensation by ethidium bromide/acridine orange staining based analysis; format: functional, cell-based; conditions: dose 1-5 µM
[19] = test system: SK-MEL-28; experiment: Induction of morphological changes in human SK-MEL-28 cells assessed as production of apoptotic bodies by ethidium bromide/acridine orange staining based analysis; format: functional, cell-based; conditions: dose 1-5 µM
[20] = test system: SK-MEL-28; experiment: Induction of morphological changes in human SK-MEL-28 cells assessed as nuclear shrinkage at 1 to 5 uM measured after 48 hrs DAPI staining based analysis; format: functional, cell-based; conditions: dose 1-5 µM
[21] = test system: SK-MEL-28; experiment: Induction of morphological changes in human SK-MEL-28 cells assessed as bright pyknotic nuclei at 1 to 5 uM measured after 48 hrs DAPI staining based analysis; format: functional, cell-based; conditions: dose 1-5 µM
[22] = test system: SK-MEL-28; experiment: Induction of morphological changes in human SK-MEL-28 cells assessed as bright fragmented nuclei at 1 to 5 uM measured after 48 hrs DAPI staining based analysis; format: functional, cell-based; conditions: dose 1-5 µM
[23] = test system: SK-MEL-28; experiment: Induction of morphological changes in human SK-MEL-28 cells assessed as chromatin condensation at 1 to 5 uM measured after 48 hrs DAPI staining based analysis; format: functional, cell-based; conditions: dose 1-5 µM
[24] = test system: SK-MEL-28; experiment: Induction of morphological changes in human SK-MEL-28 cells assessed as appearance of nuclei at 1 to 5 uM measured after 48 hrs DAPI staining based analysis; format: functional, cell-based; conditions: dose 1-5 µM

SMILES | IC50 [2] [µM] | IC50 [3] [µM] | IC50 [4] [µM] | IC50 [5] [µM] | IC50 [6] [µM] | IC50 at 72 h [7] [µM] | other results
COc1cc(-c2nc3cc(C)ccc3[nH]2)ccc1OCC(=O)N1CCc2ccccc2C1 | 6.04 | 4.76 | 5.5 | 2.55 | 5.9 | 51.9 | selectivity ratio [1]: 10.9; selectivity ratio [8]: 8.6; selectivity ratio [9]: 9.4; Selectivity Index [10]: 20.3; selectivity ratio [11]: 8.8; Activity [12]: Dose-Dependent Effect; inhibition [13]: Active; inhibition [14]: Active; inhibition [15]: Dose-Dependent Effect; Activity [16]: Dose-Dependent Effect; Activity [17]: Dose-Dependent Effect; Activity [18]: Dose-Dependent Effect; Activity [19]: Dose-Dependent Effect; Activity [20]: Active; Activity [21]: Active; Activity [22]: Active; Activity [23]: Active; Activity [24]: Active
COc1ccc2[nH]c(-c3ccc(OCC(=O)N4CCOCC4)c(OC)c3)nc2c1 | > 20 | > 20 | > 20 | > 20 | > 20 | > 100 | 
COc1ccc2[nH]c(-c3ccc(OCC(=O)N4CCN(C(=O)OC(C)(C)C)CC4)c(OC)c3)nc2c1 | > 20 | > 20 | > 20 | > 20 | > 20 | > 100 | 
COc1cc(-c2nc3ccccc3[nH]2)ccc1OCC(=O)N1CCCCC1 | > 20 | > 20 | > 20 | > 20 | > 20 | > 100 | 
COc1ccc2[nH]c(-c3ccc(OCC(=O)N4CCCCC4)c(OC)c3)nc2c1 | > 20 | > 20 | > 20 | > 20 | > 20 | > 100 | 
COc1ccc2[nH]c(-c3ccc(OCC(=O)N4CCN(c5ncccn5)CC4)c(OC)c3)nc2c1 | > 20 | 12.5 | 8.35 | 6.13 | > 20 | > 100 | 
COc1cc(-c2nc3cc(C)ccc3[nH]2)ccc1OCC(=O)N1CCCCC1 | > 20 | > 20 | > 20 | > 20 | > 20 | > 100 | 
COc1cc(-c2nc3cc(F)ccc3[nH]2)ccc1OCC(=O)N1CCN(c2ncccn2)CC1 | > 20 | 16.1 | 14 | 7.71 | > 20 | > 100 | 
COc1cc(-c2nc3cc(F)ccc3[nH]2)ccc1OCC(=O)N1CCN(C(=O)OC(C)(C)C)CC1 | > 20 | > 20 | > 20 | > 20 | > 20 | > 100 | 
COc1cc(-c2nc3cc(F)ccc3[nH]2)ccc1OCC(=O)N1CCc2ccccc2C1 | 10.1 | > 20 | > 20 | 8.59 | 14.7 | > 100 | 
COc1cc(-c2nc3cc(C)ccc3[nH]2)ccc1OCC(=O)N1CCN(c2ncccn2)CC1 | 4.7 | 8.53 | 7.93 | 5.42 | 11.8 | > 100 | 
COc1cc(-c2nc3cc(F)ccc3[nH]2)ccc1OCC(=O)N1CCCCC1 | > 20 | > 20 | > 20 | > 20 | > 20 | > 100 | 
COc1cc(-c2nc3cc(C)ccc3[nH]2)ccc1OCC(=O)N1CCOCC1 | > 20 | > 20 | > 20 | > 20 | > 20 | > 100 | 
COc1ccc2[nH]c(-c3ccc(OCC(=O)N4CCc5ccccc5C4)c(OC)c3)nc2c1 | 7.9 | 4.96 | 8.12 | 2.95 | 11 | 20.5 | 
COc1cc(-c2nc3ccccc3[nH]2)ccc1OCC(=O)N1CCc2ccccc21 | > 20 | > 20 | > 20 | 3.82 | 7.68 | > 100 | 
COc1cc(-c2nc3ccccc3[nH]2)ccc1OCC(=O)N1CCN(C(=O)OC(C)(C)C)CC1 | > 20 | > 20 | > 20 | > 20 | > 20 | > 100 | 
COc1cc(-c2nc3ccccc3[nH]2)ccc1OCC(=O)N1CCc2ccccc2C1 | > 20 | > 20 | > 20 | > 20 | > 20 | > 100 | 
COc1cc(-c2nc3ccccc3[nH]2)ccc1OCC(=O)N1CCCC1 | > 20 | > 20 | > 20 | > 20 | > 20 | > 100 | 
COc1ccc2[nH]c(-c3ccc(OCC(=O)N4CCCC4)c(OC)c3)nc2c1 | > 20 | > 20 | > 20 | > 20 | > 20 | > 100 | 
COc1cc(-c2nc3ccccc3[nH]2)ccc1OCC(=O)N1CCN(c2ncccn2)CC1 | > 20 | > 20 | > 20 | 12.2 | > 20 | > 100 | 
COC(=O)Nc1nc2cc(C(=O)c3cccs3)ccc2[nH]1 [NOCODAZOLE] | 3.5 | 8.58 | 5.93 | 8.59 | 4.13 |  | 
COc1cc(-c2nc3ccccc3[nH]2)ccc1OCC(=O)N1CCOCC1 | > 20 | > 20 | > 20 | > 20 | > 20 | > 100 | 
COc1cc(-c2nc3cc(F)ccc3[nH]2)ccc1OCC(=O)N1CCCC1 | > 20 | > 20 | > 20 | > 20 | > 20 | > 100 | 
COc1cc(-c2nc3cc(F)ccc3[nH]2)ccc1OCC(=O)N1CCOCC1 | > 20 | > 20 | > 20 | > 20 | > 20 | > 100 | 
COc1ccc2[nH]c(-c3ccc(OCC(=O)N4CCc5ccccc54)c(OC)c3)nc2c1 | 8.39 | 12.6 | 8.05 | 3.32 | 7.78 | > 100 | 
COc1cc(-c2nc3cc(C)ccc3[nH]2)ccc1OCC(=O)N1CCc2ccccc21 | > 20 | 15.6 | 6.89 | > 20 | > 20 | > 100 | 
COc1cc(-c2nc3cc(C)ccc3[nH]2)ccc1OCC(=O)N1CCCC1 | > 20 | > 20 | > 20 | > 20 | > 20 | > 100 | 
